The results in this text go back to ChEMBL document CHEMBL3817765, “Doxifluridine-conjugated 2-5A analog shows strong RNase L activation ability and tumor suppressive effect” (Bioorg Med Chem, 2016).

For data set [1], the target named is T1, 2-5A-dependent ribonuclease (Homo sapiens) (UniProt Q05823).
T1 sequence (whole entry): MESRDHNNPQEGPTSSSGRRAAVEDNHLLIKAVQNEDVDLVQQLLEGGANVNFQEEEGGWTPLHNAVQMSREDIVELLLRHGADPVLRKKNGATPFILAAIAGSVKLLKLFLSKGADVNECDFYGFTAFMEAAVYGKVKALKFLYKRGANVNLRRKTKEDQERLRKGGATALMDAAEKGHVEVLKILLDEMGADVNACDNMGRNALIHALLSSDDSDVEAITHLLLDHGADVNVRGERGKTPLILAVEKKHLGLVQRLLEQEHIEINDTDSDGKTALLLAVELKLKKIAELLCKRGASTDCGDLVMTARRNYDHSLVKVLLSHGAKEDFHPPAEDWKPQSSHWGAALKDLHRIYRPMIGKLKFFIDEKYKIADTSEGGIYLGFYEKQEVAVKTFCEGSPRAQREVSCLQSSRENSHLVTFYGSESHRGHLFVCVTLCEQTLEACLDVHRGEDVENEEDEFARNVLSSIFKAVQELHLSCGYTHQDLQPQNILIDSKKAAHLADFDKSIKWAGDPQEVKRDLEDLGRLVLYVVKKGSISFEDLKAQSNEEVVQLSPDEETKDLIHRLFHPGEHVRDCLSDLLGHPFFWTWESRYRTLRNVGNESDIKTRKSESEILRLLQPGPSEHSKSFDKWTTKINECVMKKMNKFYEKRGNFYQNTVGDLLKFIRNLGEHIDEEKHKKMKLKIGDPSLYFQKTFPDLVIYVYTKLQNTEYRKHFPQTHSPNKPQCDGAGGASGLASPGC
Kind of data set: Ratio of p5'A2'p5'A2'p5'A2'p5'A EC50 to compound EC50 for recombinant human RNase L activity.

In data set [2] the target is T2, 2-5A-dependent ribonuclease (Homo sapiens, UniProt Q05823).
T2 sequence (Q05823 whole entry): T1 sequence (whole entry)
In words: Induction of recombinant human RNase L activity expressed in Escherichia coli using F-5'-r(C11U2C7)-3' as substrate by polyacrylamide gel electrophoresis.

Data set [3] deals with HeLa. Kind of data set: Cytotoxicity against human HeLa cells assessed as cell growth at 1 uM after 6 to 24 hrs by counting chamber analysis relative to control. Format: functional. The settings on record: read-out: Activity.
Data set [4] is described as follows: Half life of the compound assessed as snake venom phosphodiesterase-mediated compound hydrolysis at 9 uM by HPLC analysis. Type of data set: ADME. The settings on record: serpentes.
Data set [5] has as its system HeLa. Kind of data set: Cytotoxicity against human HeLa cells assessed as cell growth inhibition after 6 to 24 hrs by counting chamber analysis. Format: functional, cell-based.
The subject of data set [6] is HeLa. Kind of data set: Cytotoxicity against human HeLa cells assessed as cell growth inhibition at 0.1 to 1 uM after 6 to 24 hrs by counting chamber analysis. Format: functional, cell-based.

Active and inactive are the calls of the source. No cut-off for these calls is given here.

In general, EC50 refers to the concentration giving half of the maximal effect. For the molecule `Cc1nc2c(N)ncnc2n1[C@@H]1O[C@H](COP(=O)(O)O[C@@H]2[C@H](O)[C@@H](COP(=O)(O)O[C@@H]3[C@H](O)[C@@H](COP(=O)(O)O[C@@H]4[C@H](O)[C@@H](CO)O[C@H]4n4ccc(=O)[nH]c4=O)O[C@H]3n3cnc4c(N)ncnc43)O[C@H]2n2cnc3c(N)ncnc32)[C@@H](O)[C@H]1O`, the Ratio EC50 in data set [1] is 5.4. For the same molecule, in data set [2] (read-out: EC50), the EC50 was determined as 2.4 nM.

As for `Nc1ncnc2c1ncn2[C@@H]1O[C@H](COP(=O)(O)O[C@@H]2[C@H](O)[C@@H](COP(=O)(O)O[C@@H]3[C@H](O)[C@@H](COP(=O)(O)O[C@@H]4[C@H](O)[C@@H](CO)O[C@H]4n4cnc5c(N)ncnc54)O[C@H]3n3cnc4c(N)ncnc43)O[C@H]2n2cnc3c(N)ncnc32)[C@@H](O)[C@H]1O`, the EC50 result in data set [2] is on record as “Not Active”.

What is called half-life is how long it takes for the measured level to halve. Turning to `Cc1nc2c(N)ncnc2n1[C@@H]1O[C@H](COP(=O)(O)O[C@@H]2[C@H](O)[C@@H](COP(=O)(O)O[C@@H]3[C@H](O)[C@@H](COP(=O)(O)O[C@@H]4[C@H](O)[C@@H](C)O[C@H]4n4cc(F)c(=O)[nH]c4=O)O[C@H]3n3cnc4c(N)ncnc43)O[C@H]2n2cnc3c(N)ncnc32)[C@@H](O)[C@H]1O`, in the data set with HeLa [3], the growth at 1 µM turned out to be 25%. For the same molecule, the Ratio EC50 in data set [1] was 28.9. Also, the half-life at 9 µM in data set [4] is 9 min. Further, in data set [2] (read-out: EC50), the EC50 was found to be 0.45 nM. In addition, the “growth inhibition (GI)” value with HeLa [5] was “Dose-dependent effect”.

Turning to `Nc1ncnc2c1ncn2[C@@H]1O[C@H](COP(=O)(O)O[C@@H]2[C@H](O)[C@@H](COP(=O)(O)O[C@@H]3[C@H](O)[C@@H](COP(=O)(O)O[C@@H]4[C@H](O)[C@@H](COP(=O)(O)O)O[C@H]4n4ccc(=O)[nH]c4=O)O[C@H]3n3cnc4c(N)ncnc43)O[C@H]2n2cnc3c(N)ncnc32)[C@@H](O)[C@H]1O`, the Ratio EC50 in data set [1] was found to be 0.15. For the same molecule, the EC50 in data set [2] (read-out: EC50) stood at 84 nM.

For `Cc1nc2c(N)ncnc2n1[C@@H]1O[C@H](COP(=O)(O)O[C@@H]2[C@H](O)[C@@H](COP(=O)(O)O[C@@H]3[C@H](O)[C@@H](COP(=O)(O)O[C@@H]4[C@H](O)[C@@H](CO)O[C@H]4n4cnc5c(N)ncnc54)O[C@H]3n3cnc4c(N)ncnc43)O[C@H]2n2cnc3c(N)ncnc32)[C@@H](O)[C@H]1O`, the Ratio EC50 in data set [1] was 5.6. The EC50 in data set [2] (read-out: EC50) is 2.3 nM.

As to `Cc1nc2c(N)ncnc2n1[C@@H]1O[C@H](COP(=O)(O)O[C@@H]2[C@H](O)[C@@H](COP(=O)(O)O[C@@H]3[C@H](O)[C@@H](COP(=O)(O)O[C@@H]4[C@H](O)[C@@H](COP(=O)(O)O)O[C@H]4n4ccc(=O)[nH]c4=O)O[C@H]3n3cnc4c(N)ncnc43)O[C@H]2n2cnc3c(N)ncnc32)[C@@H](O)[C@H]1O`, in data set [1], the Ratio EC50 came out at 4.8. For the same molecule, in data set [2] (read-out: EC50), the concentration giving a half-maximal response (EC50) was found to be 2.7 nM.

In the case of `C[C@H]1O[C@@H](n2cc(F)c(=O)[nH]c2=O)[C@H](O)[C@@H]1O`, the “growth inhibition (GI)” value in the data set on HeLa [5] is “Dose-dependent effect”.

Take `Nc1ncnc2c1ncn2[C@@H]1O[C@H](COP(=O)(O)O[C@@H]2[C@H](O)[C@@H](COP(=O)(O)O[C@@H]3[C@H](O)[C@@H](COP(=O)(O)O[C@@H]4[C@H](O)[C@@H](COP(=O)(O)O)O[C@H]4n4cnc5c(N)ncnc54)O[C@H]3n3cnc4c(N)ncnc43)O[C@H]2n2cnc3c(N)ncnc32)[C@@H](O)[C@H]1O`: the half-life at 9 µM in data set [4] stood at 6.4 min. In addition, the “growth inhibition (GI)” value with HeLa [6] is “inactive”. Further, the EC50 in data set [2] (read-out: EC50) stood at 12.9 nM.

Take `Cc1nc2c(N)ncnc2n1[C@@H]1O[C@H](COP(=O)(O)O[C@@H]2[C@H](O)[C@@H](COP(=O)(O)O[C@@H]3[C@H](O)[C@@H](COP(=O)(O)O[C@H]4[C@@H](O)[C@H](n5ccc(=O)[nH]c5=O)O[C@@H]4CO)O[C@H]3n3cnc4c(N)ncnc43)O[C@H]2n2cnc3c(N)ncnc32)[C@@H](O)[C@H]1O`: the Ratio EC50 in data set [1] is 0.1. Besides, the EC50 in data set [2] (read-out: EC50) was 134 nM.

With `Cc1nc2c(N)ncnc2n1[C@@H]1O[C@H](COP(=O)(O)O[C@@H]2[C@H](O)[C@@H](COP(=O)(O)O[C@@H]3[C@H](O)[C@@H](COP(=O)(O)O[C@H]4[C@@H](O)[C@H](n5cnc6c(N)ncnc65)O[C@@H]4CO)O[C@H]3n3cnc4c(N)ncnc43)O[C@H]2n2cnc3c(N)ncnc32)[C@@H](O)[C@H]1O`, the Ratio EC50 in data set [1] came out at 0.64. In data set [2] (read-out: EC50), the EC50 turned out to be 20.3 nM.
